# Experimental data reported in patent US4740501A (priority 1985, dated 1988).
# pIC50: −log10 of the molar value.
# Key:
# [1] = tested on: MJY-alpha mammary tumor cell layers; test: Tumor cell survival (trypan blue), continuous exposure; format: cell-based, Mouse; details: for Percent Tumor Cell Survival / % tumor cell survival / reduction of tumor cell survival: MJY-alpha; for Percent Tumor Cell Survival: treated 24 hr; for reduction of tumor cell survival: 10 microgram/ml
# [2] = tested on: L1210/L-PAM leukemia; test: cells; format: cell-based, mice
# [3] = tested on: B-16 melanoma cell layers; test: Tumor cell survival (trypan blue), continuous exposure; format: cell-based, Mouse
# [4] = tested on: MJY-alpha monolayers; format: cell-based
structure (smiles),measurement,setting,value
"CCOC(=O)[C@H](CCSC)NC(=O)[C@H](Cc1cccc(N(CCCl)CCCl)c1)NC(=O)[C@@H](N)Cc1ccc(F)cc1.Cl [PTT.119, 3-(p-fluorophenyl)-L-alanyl-3-[m-bis(2-chloroethyl)aminophenyl]-L-alanyl-L-methionine ethyl ester hydrochloride]",Percent Tumor Cell Survival,[1]; 1 ug/ml,54%
same,% tumor cell survival,"[1]; 5 ug/ml, 1 hr",100%
same,% tumor cell survival,"[1]; 5 ug/ml, 4 hr",100%
same,% tumor cell survival,"[1]; 5 ug/ml, 8 hr",100%
same,% tumor cell survival,"[1]; 5 ug/ml, 24 hr",53%
same,Percent Tumor Cell Survival,[1]; 5 ug/ml,41%
same,% tumor cell survival,"[1]; 10 ug/ml, 1 hr",100%
same,% tumor cell survival,"[1]; 10 ug/ml, 4 hr",100%
same,% tumor cell survival,"[1]; 10 ug/ml, 8 hr",100%
same,% tumor cell survival,"[1]; 10 ug/ml, 24 hr",53%
same,Percent Tumor Cell Survival,[1]; 10 ug/ml,36%
same,% tumor cell survival,"[1]; 25 ug/ml, 1 hr",100%
same,% tumor cell survival,"[1]; 25 ug/ml, 4 hr",100%
same,% tumor cell survival,"[1]; 25 ug/ml, 8 hr",98%
same,% tumor cell survival,"[1]; 25 ug/ml, 24 hr",25%
same,Percent Tumor Cell Survival,[1]; 25 ug/ml,27%
same,% tumor cell survival,"[1]; 50 ug/ml, 1 hr",98%
same,% tumor cell survival,"[1]; 50 ug/ml, 4 hr",87%
same,% tumor cell survival,"[1]; 50 ug/ml, 8 hr",62%
same,% tumor cell survival,"[1]; 50 ug/ml, 24 hr",19%
same,Percent Tumor Cell Survival,[1]; 50 ug/ml,20%
same,reduction of tumor cell survival,[1]; another 24 hours,25%
same,reduction of tumor cell survival,[1]; zero to 24 hours,8%
same,decrease in mammary tumor cell survival,"[1]; continuous 24 hr exposure, all concentrations tested (0.1 to 50 ug/ml)",46-80%
same,T.C.D.100,[2],30.0
same,surviving fraction at end of examination period,[2],0.8-3%
same,percentage of viable cells,[2]; 3.75 µM,40-50%
same,pIC50,"[2]; Mus musculus, L1210/LPAM, 24 h, read-out: T.C.D.50",5.52
same,% tumor cell survival,"[3]; 5 ug/ml, 1 hr",100%
same,% tumor cell survival,"[3]; 5 ug/ml, 4 hr",100%
same,% tumor cell survival,"[3]; 5 ug/ml, 8 hr",100%
same,% tumor cell survival,"[3]; 5 ug/ml, 24 hr",74%
same,% tumor cell survival,"[3]; 10 ug/ml, 1 hr",100%
same,% tumor cell survival,"[3]; 10 ug/ml, 4 hr",100%
same,% tumor cell survival,"[3]; 10 ug/ml, 8 hr",63%
same,% tumor cell survival,"[3]; 10 ug/ml, 24 hr",64%
same,% tumor cell survival,"[3]; 25 ug/ml, 1 hr",100%
same,% tumor cell survival,"[3]; 25 ug/ml, 4 hr",100%
same,% tumor cell survival,"[3]; 25 ug/ml, 8 hr",92%
same,% tumor cell survival,"[3]; 25 ug/ml, 24 hr",60%
same,% tumor cell survival,"[3]; 50 ug/ml, 1 hr",100%
same,% tumor cell survival,"[3]; 50 ug/ml, 4 hr",100%
same,% tumor cell survival,"[3]; 50 ug/ml, 8 hr",58%
same,% tumor cell survival,"[3]; 50 ug/ml, 24 hr",33%
same,reduction of viability of tumor cell layers compared to solvent,[4],15-20%
